Literature values, collected in US20110130383A1, “Use of Ion Channel Modulators in the Prophylaxis and Treatment of Inflammatory and Immunological Diseases” (LECTUS THERAPEUTICS LIMITED, priority 2006, published 2011).

Tests used:
Kv1.3 channels = Kv1.3 channels (Homo sapiens, UniProt P22001); conditions: inhibition of Kv1.3 channels versus cardiac Kv1.5 channels
[1] = rats, 28-day, administered by gavage; tissues including those reported to express Kv1.3 channels

Sequence of Kv1.3 channels (P22001 whole entry): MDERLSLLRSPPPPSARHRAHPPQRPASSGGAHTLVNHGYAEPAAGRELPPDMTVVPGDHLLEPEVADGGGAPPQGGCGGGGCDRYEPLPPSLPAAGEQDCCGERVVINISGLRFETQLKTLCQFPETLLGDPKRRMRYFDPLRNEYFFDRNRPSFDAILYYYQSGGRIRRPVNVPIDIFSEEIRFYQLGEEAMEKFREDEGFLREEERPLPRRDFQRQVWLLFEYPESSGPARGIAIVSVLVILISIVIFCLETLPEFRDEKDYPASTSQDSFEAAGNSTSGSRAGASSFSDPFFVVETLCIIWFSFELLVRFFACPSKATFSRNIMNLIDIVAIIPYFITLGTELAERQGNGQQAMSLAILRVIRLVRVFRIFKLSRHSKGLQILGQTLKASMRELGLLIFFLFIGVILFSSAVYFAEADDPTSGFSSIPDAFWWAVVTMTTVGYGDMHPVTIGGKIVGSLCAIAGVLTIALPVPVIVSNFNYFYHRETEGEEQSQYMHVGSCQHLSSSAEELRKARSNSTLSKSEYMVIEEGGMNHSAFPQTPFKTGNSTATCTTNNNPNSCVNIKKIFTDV

selectivity over cardiac Kv1.5 channels (Kv1.3 channels): 23 fold
Compound: O=c1ccc2c(OCCCCOc3ccccc3)c3ccoc3cc2o1 [PAP-1]
histopathological changes in tissues examined [1]: failed to induce any histopathological changes
